Source: US11214540B2, “Compositions for treating neurodegenerative diseases” (COGNITION THERAPEUTICS, INC., priority 2017, dated 2022)

Assay: log P
Assay type: physicochemical
Conditions: not given
Description: The term “log P” refers to the partition coefficient of a compound. The partition coefficient is the ratio of concentrations of un-ionized compound in each of two solution phases, for example, octanol and water. To measure the partition coefficient of ionizable solute compounds, the pH of the aqueous phase is adjusted such that the predominant form of the compound is un-ionized. The logarithm of the ratio of concentrations of the un-ionized solute compound in the solvents is called log P. The log P is a measure of lipophilicity. For example, log Poct/wat=log([solute]octanol/[solute]un-ionized,water).
Combined Results for particular compounds described herein, with respect to log P, membrane trafficking (uM), sigma-2 receptor affinity, sigma-1 receptor affinity microsomal stability in mouse liver microsomes (MLM) (t1/2, min), t1/2 normalized to CT)10914 and in vitro toxicity potassium channel hERG (IC50, nM) are provided in Table 1: […]

Going from `CC(C)=CC(CC(C)(C)c1ccc(C(F)(F)F)cc1)N1CCC(CCOC(C)C)CC1` (centres unmarked) [Compound 164] to `COCCOCCC1CCN([C@@H](C=C(C)C)CC(C)(C)c2ccc(C(F)(F)F)cc2)CC1` [Compound 264], the “log P” value falls from 7.1 to 6.28.

First: CC(C)=CC(NCC1CCOCC1)C(C)(C)Oc1ccc(Cl)cc1 (centres unmarked) [Compound 165]
Second: CC(C)=CC(NCC1CCOCC1)C(C)(C)Oc1ccccc1 (centres unmarked) [Compound 166]
The “log P” value of the first is higher: 4.6 for the first, 3.99 for the second.

Compared with `CC(C)(CCN1CCC(CO)CC1)c1ccccc1` [Compound 308], `CC(C)(CCN1CCC(CCO)CC1)c1ccccc1` [Compound 304] is higher in “log P” value: 3.01 for the first, 3.38 for the second.

Going from `CC1(O)CCN(CCC(C)(C)c2ccccc2)CC1` [Compound 296] to `COC1CCN(CCC(C)(C)c2ccccc2)CC1` [Compound 310], the “log P” value rises from 2.83 to 3.2.

First: COc1cc(CCC(C)(C)N2Cc3cccc(C(=O)N4CCN(C(=O)CN)CC4)c3C2)ccc1O [Compound 270]
Second: COc1cc(CCC(C)(C)N2Cc3cccc(C(=O)N4CCN(C(=O)[C@H](C)N)CC4)c3C2)ccc1O [Compound 269]
The “log P” value of the first is lower: 1.81 for the first, 2.2 for the second.

Going from `COC[C@H]1CCCN1CCC(C)(C)c1ccc(C(F)(F)F)cc1` [Compound 312] to `COC[C@H]1CCCN1CCC(C)(C)c1ccc(F)cc1` [Compound 318], the “log P” value falls from 4.53 to 3.8.

Going from `CC(C)(CCN1CCC(CCO)CC1)c1ccc(Cl)cc1` [Compound 284] to `COCCOCCC1CCN(CCC(C)(C)c2ccc(Cl)cc2)CC1` [Compound 303], the “log P” value rises from 3.98 to 4.58.

Going from `CC(C)=CC(CC(C)(C)c1ccc(N2CCOCC2)cc1)N1CCC(C)(O)CC1` (centres unmarked) [Compound 148] to `CC(C)=CC(CC(C)(C)c1ccc(N2CCOCC2)cc1)N1CCC2(CCOCC2)CC1` (centres unmarked) [Compound 147], the “log P” value rises from 4.14 to 5.16.

First: CC(C)=CC(CC(C)(C)c1ccc(OC(C)(C)C)cc1)N1CCC(O)CC1 (centres unmarked) [Compound 170]
Second: CC(C)=CC(CC(C)(C)c1ccc(OC(C)(C)C)cc1)N1CCC2(CCOCC2)CC1 (centres unmarked) [Compound 168]
The “log P” value of the first is lower: 4.87 for the first, 6.17 for the second.

`COc1cc(CCC(C)(C)N2Cc3cccc(C(=O)N4CCN(C(=O)[C@@H](Cc5ccccc5)NC(C)=O)CC4)c3C2)ccc1O` [Compound 280] and `COc1cc(CCC(C)(C)N2Cc3cccc(C(=O)N4CCN(C(=O)[C@@H](N)Cc5ccccc5)CC4)c3C2)ccc1O` [Compound 259] are within 0.2 log units of each other in “log P” value: 3.85 for the first, 4.03 for the second.

Compared with `COCCCC1CCN(C(C=C(C)C)COc2ccc(F)cc2)CC1` (centres unmarked) [Compound 190], `COCCOCCC1CCN([C@H](C=C(C)C)CC(C)(C)c2ccc(C(F)(F)F)cc2)CC1` [Compound 263] is higher in “log P” value: 4.63 for the first, 6.28 for the second.

First: CCCCC1(OC(=O)NC(C)C)CCN(C(C=C(C)C)CC(C)(C)c2ccc(C(F)(F)F)cc2)CC1 (centres unmarked) [Compound 216]
Second: CCCCC1(OC(=O)NC(C)C)CCN(C(C=C(C)C)CC(C)(C)c2ccc(Cl)cc2)CC1 (centres unmarked) [Compound 225]
The “log P” value of the first is higher: 7.65 for the first, 7.37 for the second.

Going from `CCOC(=O)C1CCN(C(C=C(C)C)CC(C)(C)c2ccccc2)CC1` (centres unmarked) [Compound 278] to `CCOC(=O)C1CCN(CCC(C)(C)c2ccccc2)CC1` [Compound 299], the “log P” value falls from 5.23 to 3.81.

First: CCOC(=O)C1CCN(C(C)CC(C)(C)c2ccc(Cl)cc2)CC1 (centres unmarked) [Compound 268]
Second: CCOC(=O)C1CCN(C(C)CC(C)(C)c2ccc(C(F)(F)F)cc2)CC1 (centres unmarked) [Compound 277]
The “log P” value of the first is lower: 4.83 for the first, 5.11 for the second.

`COCC1CCCN1C(C=C(C)C)CC(C)(C)c1ccc(Cl)cc1` (centres unmarked) [Compound 234] and `COC[C@H]1CCCN1[C@H](C=C(C)C)CC(C)(C)c1ccc(Cl)cc1` [Compound 235] are the same in “log P” value: 5.68 for the first, 5.68 for the second.

Compared with `CC(C)=CC(NCC(C)C)C(C)(C)Oc1ccccc1` (centres unmarked) [Compound 173], `COCCNC(C=C(C)C)C(C)(C)Oc1ccccc1` (centres unmarked) [Compound 172] is lower in “log P” value: 4.81 for the first, 3.52 for the second.

`COC[C@@H]1CCCN1CCC(C)(C)c1ccccc1` [Compound 302] and `COC[C@@H]1CCCN1CCC(C)(C)c1ccc(F)cc1` [Compound 319] are within 0.2 log units of each other in “log P” value: 3.65 for the first, 3.8 for the second.

Compared with `CC(C)=C[C@H](CC(C)(C)c1ccc(Cl)cc1)N1CCC[C@@H]1CO` [Compound 240], `COC[C@H]1CCCN1C(C=C(C)C)CC(C)(C)c1ccc(Cl)cc1` (some centres unmarked) [Compound 246] is higher in “log P” value: 5.04 for the first, 5.68 for the second.

Compared with `CCOC(=O)N1CCN(C(C=C(C)C)CC(C)(C)c2ccc(F)cc2)CC1` (centres unmarked) [Compound 196], `CCOC(=O)N1CCN(C(C=C(C)C)CC(C)(C)c2ccc(C(F)(F)F)cc2)CC1` (centres unmarked) [Compound 208] is higher in “log P” value: 4.85 for the first, 5.58 for the second.

Compared with `CC(C)=CC(CC(C)(C)c1ccc(F)cc1)N1CCC(O)(c2ccccc2)CC1` (centres unmarked) [Compound 221], `CC(C)=CC(CC(C)(C)c1ccc(Cl)cc1)N1CCC(O)(c2ccccc2)CC1` (centres unmarked) [Compound 211] is higher in “log P” value: 5.76 for the first, 6.23 for the second.

Compared with `COc1ccc(C(C)(C)CC(c2ccccc2)N2CCCCC2)cc1` (centres unmarked) [Compound 116], `CC(C)(CC(c1ccccc1)N1CCC(C2CCOCC2)CC1)c1ccc(Cl)cc1` (centres unmarked) [Compound 119] is higher in “log P” value: 5.71 for the first, 6.67 for the second.

Going from `CC(C)=CC(CC(C)(C)c1ccc(C(F)(F)F)cc1)N1CCC(C)(OC(=O)NC(C)C)CC1` (centres unmarked) [Compound 228] to `CC(C)=CC(CC(C)(C)c1ccc(C(F)(F)F)cc1)N1CCN(C(=O)OCC(C)C)CC1` (centres unmarked) [Compound 209], the “log P” value rises from 6.24 to 6.47.

`CC(C)=CC(CC(C)(C)c1ccccc1)N1CCC(C2CCOCC2)CC1` (centres unmarked) [Compound 204] and `CCCCC1(O)CCN(C(C=C(C)C)CC(C)(C)c2ccccc2)CC1` (centres unmarked) [Compound 223] are within 0.2 log units of each other in “log P” value: 5.7 for the first, 5.67 for the second.

First: CC(C)(CCN1CCC(C)(c2ccccc2)CC1)c1ccc(F)cc1 [Compound 316]
Second: CC(C)(CCN1CCC(O)(c2ccccc2)CC1)c1ccc(Cl)cc1 [Compound 285]
The “log P” value of the first is lower: 4.34 for the first, 4.81 for the second.

First: CC(C)(CC(NCC1CCOCC1)c1ccccc1)c1ccc(Cl)cc1 (centres unmarked) [Compound 121]
Second: CC(C)(CCN1CC[C@@H](O)C1)c1ccc(Cl)cc1 [Compound 288]
The “log P” value of the first is higher: 5.66 for the first, 3.1 for the second.

Going from `CC(C)=CC(CC(C)(C)c1ccc(F)cc1)N1CCN(S(=O)(=O)N(C)C)CC1` (centres unmarked) [Compound 195] to `COC[C@H]1CCCN1C(C=C(C)C)CC(C)(C)c1ccc(F)cc1` (some centres unmarked) [Compound 251], the “log P” value rises from 3.36 to 5.22.

`COC[C@@H]1CCCN1C(C)CC(C)(C)c1ccc(C(F)(F)F)cc1` (some centres unmarked) [Compound 276] and `COC1CN(C(C=C(C)C)CC(C)(C)c2ccc(Cl)cc2)C1` (centres unmarked) [Compound 167] are within 0.2 log units of each other in “log P” value: 4.95 for the first, 5.1 for the second.

Compared with `CC(C)=CC(CC(C)(C)c1ccccc1)N1CCC(O)(c2ccccc2)CC1` (centres unmarked) [Compound 220], `CCCCC1(O)CCN(C(C=C(C)C)CC(C)(C)c2ccc(Cl)cc2)CC1` (centres unmarked) [Compound 214] is higher in “log P” value: 5.62 for the first, 6.27 for the second.

First: COC(=O)C1CCN(CCC(C)(C)c2ccccc2)CC1 [Compound 295]
Second: COc1cc(CCC(C)(C)N2Cc3cccc(C(=O)N4CCN(C(=O)[C@H](C)O)CC4)c3C2)ccc1O [Compound 281]
The “log P” value of the first is higher: 3.45 for the first, 2.48 for the second.

With `COCCNC(C=C(C)C)C(C)(C)Oc1ccc(F)cc1` (centres unmarked) [Compound 174] the “log P” value was 3.67.

Same assay, conditions: octanol/water

`CC(C)(CCN1CCC(CO)CC1)c1ccc(C(F)(F)F)cc1` [Example 306] and `COC1CCN(CCC(C)(C)c2ccc(C(F)(F)F)cc2)CC1` [Example 191] are within 0.2 log units of each other in logP: 3.89 for the first, 4.07 for the second.

`CC(C)(CCN1CCC(O)(c2ccccc2)CC1)c1ccc(C(F)(F)F)cc1` [Example 307] showed a logP of 5.08.
